{
  "source": "patent US20050070603A1",
  "about": "“Use of glycerides to alleviate symptoms of digestive disorders” (priority 2003, published 2005)",
  "system": "Irritable Bowel Syndrome symptoms (pain associated with intestinal gas, bloating and constipation)",
  "assay": "Case report: patient suffering from IBS taking MCT orally",
  "format": "in vivo, human",
  "experimental": "Over a period of 8 weeks, the patient increased the dose of MCT to approx. 15 mL (in approx. 240 mL of soymilk) per day to achieve complete symptomatic relief from IBS.",
  "data": [
    {"substance": "Caprylic triglyceride [Neobee 895]", "values": [
      {"measurement": "change in HDL, LDL and triglyceride levels", "setting": "after 10 months of use of MCT", "result": "no noticeable change"},
      {"measurement": "adverse effects on continued use", "setting": "continued use, approx. 1 year", "result": "without any adverse effects"},
      {"measurement": "continued relief from IBS symptoms", "setting": "continued use, approx. 1 year", "result": "complete relief from the IBS symptoms"},
      {"measurement": "improvement of IBS symptoms", "setting": "initially, one teaspoon (approx. 5 mL) MCT as emulsion in soymilk (approx. 240 mL) per day, one patient", "result": "some improvement"},
      {"measurement": "relief of IBS symptoms", "setting": "one tablespoon (approx. 15 mL) MCT per day, oral, in approx. 240 mL soymilk, dose increased over 8 weeks, one patient", "result": "complete relief of the symptoms"}
    ]}
  ]
}
